Several values for one entry are separate records, joined by “and”; a condition that tells them apart may be missing. Equal entries are not always repeated. Where two headings read alike, the source gives them in different places.
Columns and labels:
[1] = system: Enterococcus faecalis B84939-vancomycin^r; test: MIC, broth microdilution; assay type: cell-based; settings: Gram positive clinical isolate
[2] = system: A. baumannii-amikacin^r, meropenem^r; settings: Gram negative clinical isolate
[3] = system: K. pneumoniae-ESBL positive; settings: Gram negative clinical isolate
S. epidermidis B32954 = test: MIC, broth microdilution; assay type: cell-based, Staphylococcus epidermidis; settings: Gram positive clinical isolate
P. aeruginosa R17093 = test: MIC, broth microdilution; assay type: cell-based, Pseudomonas aeruginosa; settings: Gram negative clinical isolate; for MIC: read-out: Minimum Inhibitory Concentration
E. Coli-ESBL negative = settings: Gram negative clinical isolate
[4] = system: Enterobacter cloacae W25161; settings: Gram negative clinical isolate
E. coli U23773^r = settings: Gram negative clinical isolate
[5] = system: P. aeruginosa-gentamicin^r, meropenem^r; settings: Gram negative clinical isolate
S. epidermidis MSSE = settings: Gram positive clinical isolate
E. Coli-ESBL positive = settings: Gram negative clinical isolate
S. aureus MSSA = settings: Gram positive clinical isolate
[6] = system: P. aeruginosa-gentamicin^s, meropenem^s; settings: Gram negative clinical isolate
A. baumannii R16998 = settings: Gram negative clinical isolate
[7] = system: A. baumannii-amikacin^s, meropenem^s; settings: Gram negative clinical isolate
Enterobacter cloacae = settings: Gram negative clinical isolate
HIV-1 IIIB = test: microbe, parasite or virus in culture; assay type: cell-based; settings: Table 3; against HIV-1 IIIB virus; read-out: EC50
Protocol: Inhibition of HIV-1 cell replication was tested using the cMAGI assay, which is based on the ability of HIV-1 TAT to transactivate the expression of an integrated β-galactosidase reporter gene driven by the HIV-LTR (B. Chackeria et al., J. Virol., (1997) 71, 3932; Collins et al., Nat. Med. (2000) 6, 475). The β-galactosidase reporter is modified to remain localized in the nucleus where it can be detected with the X-gal (5-bromo-4-chloro-3indoyl-β-D-galactopyranoside) substrate as an intense nuclear stain within a few days of infection.
(§1) HIV-1 isolates were propagated by subculture in MT2 cells (Litovchick et al. (2001) supra). Aliquots of cell-free culture supernatants were used as viral inoculum. PAACs were dissolved in the RPMI 1640 medium. Cytotoxicity determinations were carried out in MT2 cells by trypan blue exclusion assay. Viral inhibition was determined by incubating MT2 or cMAGI HIV-1 reporter cells with 0.2-0.5 multiplicity of infection of HIV-1 wild type or resistant virus for 4 days at 37° C. in the presence or absence of various concentrations of pAACs. HIV-1 infection of cMAGI cells was determined by counting the number of HIV-1-infected cells (stained blue). The cytopathic effects of the viral infection of MT2 cells were also analyzed by microscopic assessment of syncytium formation.

S. aureus MRSA = settings: Gram positive clinical isolate
Serratia marcescens = settings: Gram negative clinical isolate
S. epidermidis MRSE = settings: Gram positive clinical isolate
[8] = system: K. pneumoniae-ESBL negative; settings: Gram negative clinical isolate
[9] = system: Enterococcus faecalis (clinical isolate); settings: Gram positive clinical isolate
[10] = system: Enterococcus faecium (clinical isolate); test: MIC, broth microdilution; assay type: cell-based; settings: Gram positive clinical isolate
Enterobacter aerogenes = settings: Gram negative clinical isolate
[11] = system: Proteus mirabilis ATCC 7002; settings: Gram negative reference strain
[12] = system: Moraxella catarrhalis ATCC 25238 (Branhamella); settings: Gram negative reference strain
[13] = system: Escherichia coli ATCC 25922; settings: Gram negative reference strain
in vitro = assay type: cell-based; settings: human, MT2 cells; Table 3; trypan blue exclusion; read-out: Cytotoxicity
Protocol: Cytotoxicity of the various pAACs was determined using the trypan blue exclusion assay. In brief, a sample of the cell suspension was diluted 1:1 (v/v) with 0.4% trypan blue and the cells were counted using a hemocytometer. Results are expressed as the percentage of dead cells.
as §1

[14] = system: Acinetobacter baumannii ATCC 19606; settings: Gram negative reference strain
VRE faecium = settings: clinical isolate, Table 7
[15] = system: Pseudomonas aeruginosa ATCC 27853; settings: Gram negative reference strain
[16] = system: Klebsiella pneumoniae ATCC 13883; settings: Gram negative reference strain
[17] = system: Staphylococcus aureus ATCC 24213; settings: Gram positive reference strain
CXCR4 = target: T1, CXCR4 (Homo sapiens, UniProt P61073); test: Competition with 12G5 mAb binding to CXCR4 on MT2 cells (flow cytometry); settings: 80 μM; read-out: % Inhibition of 12G5 mAb binding to CXCR4
T1 construct: incubated at 4° C. with anti-CXCR4 mAb, 12G5, conjugated to phycoerithrine (PE); endogenous in cells; host or cells: MT2 cells
Protocol: Interaction of pAACs and arginine peptides with CXCR4 coreceptor: Interactions of pAACs and arginine-peptides with CXCR4 were determined by flow cytometry (FACS-Scan, Becton Dickinson) as previously described (Litovich (2001) supra). In brief, 0.5×10^6 MT2 cells were washed with ice-cold PBS containing 0.1% sodium azide (wash buffer) and were incubated at 4° C. with anti-CXCR4 mAb, 12G5, conjugated to phycoerithrine (PE), in the absence or presence of different concentrations of pAACs and arginine peptides. After 30 minutes of incubation, the cells were washed with ice-cold wash buffer and fixed in PBS containing 1% paraformaldehyde. Non-specific fluorescence was assessed using an isotype control. For each sample 10,000 events were acquired. Data were analyzed and processed using CellQuest™ software (Becton Dickinson).

cMAGI cells = settings: FITC derivatives, 5 and 15 μM, 30 minutes at 37° C.
Protocol: Cellular uptake using pAACs and polyarginine peptide-fluorescent derivatives: cMAGI cells were incubated in a 8-well plate (2000 cells/well) with a pAACs-FITC or a peptide-FITC derivative at a final concentration of 5 and 15 μM, for 30 minutes at 37° C. After incubation, cells were washed 3 times with phosphate buffered saline 3 times and were subjected to confocal microscopy measurements (Olympus IX70 FV500 confocal laser scanning microscope).

[18] = system: Streptococcus bovis ATCC 9809; test: MIC, broth microdilution; assay type: cell-based; settings: Gram positive reference strain
Protocol: (§2) Minimal Inhibition Concentration (MIC) measurements: The Minimal Inhibitory Concentration (MIC) was generally determined by the Broth Microdilution method (based on the protocol described in Clinical and Laboratory Standard Institute (CLSI) NCCLS (2003) M7-A6), as follows:
(§3) A stock solution of each of the tested compounds was prepared by diluting the compound to a 2,560 μg/ml concentration with an appropriate solvent. The stock solution was then serially 2-fold diluted in 96-well microdilution trays using Cation-Adjusted Mueller-Hinton Broth (CAMHB) until reaching the desired range of concentrations, whereas each well contained double the final working concentration. Each row further had one growth control well (medium+inoculum only), and one sterility control well (medium+tested compound). Plates were stored at −70° C. until used.
(§4) The tested microorganisms were used as fresh overnight cultures on blood agar (for gram-positive organisms) or MacConkey agar (for gram-negatives). A standardized inoculum suspension was prepared by the direct colony suspension method, using sterile saline (equivalent to a 0.5 McFarland standard).
(§5) Thus, 50 μl of the inoculum suspension were added to each tested well (except for the sterility control well), and […] was performed during 18-24 hours (depending on the tested microorganism or compound) at 35° C.

E. coli U3075921 = test: MIC, broth microdilution; assay type: cell-based, Escherichia coli; settings: clinical isolate, Table 7
Protocol: as §2, §3, §4, §5

[19] = read-out: Minimum Inhibitory Concentration

T1 sequence (P61073 whole entry): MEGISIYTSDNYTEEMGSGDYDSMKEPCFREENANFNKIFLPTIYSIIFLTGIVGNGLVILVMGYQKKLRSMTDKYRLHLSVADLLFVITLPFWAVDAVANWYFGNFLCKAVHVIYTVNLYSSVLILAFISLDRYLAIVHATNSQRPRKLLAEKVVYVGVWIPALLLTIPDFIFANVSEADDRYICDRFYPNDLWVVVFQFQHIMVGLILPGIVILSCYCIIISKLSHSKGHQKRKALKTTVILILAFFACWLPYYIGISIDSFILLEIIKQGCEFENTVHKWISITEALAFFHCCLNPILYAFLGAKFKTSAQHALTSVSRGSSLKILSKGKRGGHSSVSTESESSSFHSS

Q: Which results are given for L-Arg-9-mer-neomycin [Compound 8]?
A: Minimum Inhibitory Concentration [1]: 32.0 mg/L; MIC [1, 19]: 10.96 µM; Minimum Inhibitory Concentration [2]: 128.0 mg/liter and 43.83 μM; Minimum Inhibitory Concentration ([2]; listed as L-Neo-9-mer): 57.92 µM; Minimum Inhibitory Concentration [3]: 1.5 mg/liter and 0.51 μM; Minimum Inhibitory Concentration (S. epidermidis B32954): 0.5 mg/L; MIC (S. epidermidis B32954; [19]): 0.17 µM; Minimum Inhibitory Concentration (P. aeruginosa R17093): 128.0 mg/L; MIC (P. aeruginosa R17093; listed as L-Neo-9-mer): 43.83 µM; MIC (P. aeruginosa R17093): 43.83 µM; Minimum Inhibitory Concentration (E. Coli-ESBL negative): 4.0 mg/liter and 1.37 μM; Minimum Inhibitory Concentration [4]: 8.0 mg/liter and 2.74 μM; Minimum Inhibitory Concentration (E. coli U23773^r): 96.0 mg/liter and 32.88 μM; Minimum Inhibitory Concentration (E. coli U23773^r; listed as L-Neo-9-mer): 32.88 µM; Minimum Inhibitory Concentration [5]: 128.0 mg/liter and 43.83 μM; Minimum Inhibitory Concentration (S. epidermidis MSSE): 0.5 mg/liter and 0.17 μM; Minimum Inhibitory Concentration (E. Coli-ESBL positive): 8.0 mg/liter and 2.74 μM; Minimum Inhibitory Concentration (S. aureus MSSA): 4.0 mg/liter and 1.37 μM; Minimum Inhibitory Concentration [6]: 48.0 mg/liter and 16.44 μM; Minimum Inhibitory Concentration (A. baumannii R16998): 128.0 mg/liter and 43.83 μM; Minimum Inhibitory Concentration [7]: 6.0 mg/liter and 2.06 μM; Minimum Inhibitory Concentration (Enterobacter cloacae): 8.0 mg/liter and 2.74 μM; EC50 (HIV-1 IIIB): 30 ± 7 µM; Minimum Inhibitory Concentration (S. aureus MRSA): 2.0 mg/liter and 0.68 μM; Minimum Inhibitory Concentration (Serratia marcescens): 4.0 mg/liter and 1.37 μM; Minimum Inhibitory Concentration (S. epidermidis MRSE): 0.5 mg/liter and 0.17 μM; Minimum Inhibitory Concentration [8]: 3.0 mg/liter and 1.03 μM; Minimum Inhibitory Concentration [9]: 256.0 mg/liter and 87.67 μM; Minimum Inhibitory Concentration [10]: 32.0 mg/L; MIC [10, 19]: 10.96 µM; Minimum Inhibitory Concentration (Enterobacter aerogenes): 8.0 mg/liter and 2.74 μM

Q: Which results are given for `N=C(N)NCCC[C@H](NC(=O)[C@H](CCCNC(=N)N)NC(=O)[C@H](CCCNC(=N)N)NC(=O)[C@H](CCCNC(=N)N)NC(=O)[C@H](CCCNC(=N)N)NC(=O)[C@H](CCCNC(=N)N)NC(=O)[C@H](CCCNC(=N)N)NC(=O)[C@H](CCCNC(=N)N)NC(=O)[C@@H](N)CCCNC(=N)N)C(=O)O` [Compound 5, L-Arg-9-mer-NH2]?
A: Minimum Inhibitory Concentration [2]: > 256.0 mg/liter and 126.50 μM; Minimum Inhibitory Concentration [3]: > 256.0 mg/liter and 126.50 μM; Minimum Inhibitory Concentration (E. Coli-ESBL negative): > 256.0 mg/liter and 126.50 μM; Minimum Inhibitory Concentration [11]: > 256.0 mg/liter and 126.50 μM; Minimum Inhibitory Concentration [5]: > 256.0 mg/liter and 126.50 μM; Minimum Inhibitory Concentration (S. epidermidis MSSE): 12.0 mg/liter and 5.93 μM; Minimum Inhibitory Concentration [12]: 32.0 mg/liter and 15.81 μM; Minimum Inhibitory Concentration (E. Coli-ESBL positive): 256.0 mg/liter and 126.50 μM; Minimum Inhibitory Concentration [13]: > 256.0 mg/liter and 126.50 μM; CC50 (in vitro): 120 µM; Minimum Inhibitory Concentration [14]: > 256.0 mg/liter and 126.50 μM; Minimum Inhibitory Concentration (VRE faecium): > 128.0 mg/L; Minimum Inhibitory Concentration [15]: > 256.0 mg/liter and 126.50 μM; Minimum Inhibitory Concentration (S. aureus MSSA): 128.0 mg/liter and 63.25 μM; Minimum Inhibitory Concentration [6]: > 256.0 mg/liter and 126.50 μM; Minimum Inhibitory Concentration [7]: > 256.0 mg/liter and 126.50 μM; Minimum Inhibitory Concentration (Enterobacter cloacae): > 256.0 mg/liter and 126.50 μM; Minimum Inhibitory Concentration [16]: > 256.0 mg/liter and 126.50 μM; EC50 (HIV-1 IIIB): 33 µM; Minimum Inhibitory Concentration (S. aureus MRSA): > 128.0 mg/liter and 63.25 μM; Minimum Inhibitory Concentration (Serratia marcescens): > 256.0 mg/liter and 126.50 μM; Minimum Inhibitory Concentration [17]: 128.0 mg/liter and 63.25 μM; inhibition at 80 µM (CXCR4): 52.8%; cellular uptake (cMAGI cells): lower uptake efficiency; Minimum Inhibitory Concentration (S. epidermidis MRSE): 32.0 mg/liter and 15.81 μM; Minimum Inhibitory Concentration [8]: > 256.0 mg/liter and 126.50 μM; Minimum Inhibitory Concentration [18]: 128.0 mg/L; Minimum Inhibitory Concentration [9]: 128.0 mg/liter and 63.25 μM; Minimum Inhibitory Concentration (Enterobacter aerogenes): > 256.0 mg/liter and 126.50 μM; Minimum Inhibitory Concentration (E. coli U3075921): > 256.0 mg/L

Source: US20060166867A1, “Novel conjugates of polysaccharides and uses thereof” (priority 2003, published 2006)
